2 molecules from ChEMBL document CHEMBL1156429 (J Biol Chem, 2007) can be followed below.

The nature of test [1]: Growth inhibition of mouse erythroleukemia cells after 24 hrs. The format is functional, cell-based. The conditions noted are these: Leukemia cell.
Another test is filed under the species Homo sapiens. The experiment in a line: Growth inhibition of normal human hematopoietic progenitor cells by colony forming assay. The format is functional.
Test [2] in a line: Growth inhibition of JAK2 V617F mutant expressing hematopoietic progenitor cells isolated from polycythemia vera patient by colony forming assay. It is filed as functional, cell-based. The conditions noted are these: Homo sapiens.
Test [3] has as its system Polycythemia vera. As to the kind of experiment: Growth inhibition of JAK2 V617F mutant expressing human polycythemia vera hematopoietic progenitor cells at 5 uM by erythroid burst-forming unit assay. It is filed as functional, cell-based.
The nature of test [4]: Growth inhibition of JAK2 V617F mutant expressing human erythroleukemia cells after 24 hrs. The conditions noted are these: Leukemia cell. The format is functional, cell-based.
The subject of another test is Jurkat. As to the kind of experiment: Growth inhibition of human Jurkat cells after 24 hrs. The format is functional, cell-based.
In test [5] the test system is Polycythemia vera. The experiment in a line: Growth inhibition of JAK2 V617F mutant deficient human polycythemia vera hematopoietic progenitor cells at 5 uM by erythroid burst-forming unit assay. The format is functional, cell-based.
The nature of test [6]: Inhibition of formation of erythroid burst-forming units in human polycythemia vera cells at 1 uM. The conditions noted are these: read-out: INH.

Counter-ions that a name gives are not always drawn. Calls of active or inactive are those of the source. No cut-off for these calls is given here.

The IC50 is the point on the concentration scale where inhibition reaches its midpoint. A high value points to a need for much substance. As for `C#Cc1cccc(Nc2ncnc3cc(OCCOC)c(OCCOC)cc23)c1` [ERLOTINIB], the IC50 in test [1] turned out to be 2000 nM; in test [2], 5000 nM; in test [4], 2000 nM; with Jurkat, 2000 nM. The outcome in the test listed under Homo sapiens and in the test with Polycythemia vera [5] was inactive. Further, the result in the test on Polycythemia vera [3] was Active.

On to `Cc1ccc(NC(=O)c2ccc(CN3CCN(C)CC3)cc2)cc1Nc1nccc(-c2cccnc2)n1` [IMATINIB MESYLATE], for which the inhibition at 1 µM in test [6] is 73%.
